What was measured:
[1] = tested on: Aortic Smooth Muscle Cells (A7r5); experiment: Methylene Blue Cell Proliferation assay, Aortic Smooth Muscle Cells (A7r5); assay type: cell-based, rat; settings: 3 days, methylene blue staining, serum free medium, FIG. 3
Protocol: Inhibition of Proliferation of Aortic Smooth Muscle Cells (A7r5) by wax myrtle extract: The Methylene Blue Cell Proliferation assay assess growth inhibition in a cell-based proliferation assay using protein staining as an estimate of relative cell number. For assessment of cell-based potency, A7r5 (20,000 cells/well) were plated in 96-well plates in the growth media. After 24 h, cells were exposed to compounds at different concentrations. A final concentration of 0.2% DMSO was added to the growth media to keep the compounds in solution. After 3 days, relative cell numbers were estimated using methylene blue staining. The absorbance at 620 nm was read in a microplate reader. Data were analyzed using curve-fitting macros written for Microsoft Excel. Concentrations with IC50 were interpolated using the equation: y=Vmax×[1−(x^n/(K^n+x^n))], where “K” is equal to IC50.

[2] = tested on: Aortic Smooth Muscle Cells (A7r5); experiment: Induction of apoptosis by Cell Death ELISA (cytoplasmic histone-DNA fragments) in A7r5 cells; assay type: cell-based, rat; settings: 24 h treatment, serum free medium, FIG. 4
Protocol: Induction of Apoptosis in Aortic Smooth Muscle Cells (A7r5) by wax myrtle extract and myriceric acid,: Quantitation of apoptotic cell death was determined by Cell Death ELISA (Roche Biochemicals) that measures cytoplasmic histone-DNAfragments produced during apoptosis. Briefly, A7r5 cells (5×10^3/well)were grown in 96-well plates and treated, in triplicates, for 24 h with the indicated doses of wax myrtle extract and myriceric acid A. After treatment, the 96-well plates were centrifuged (200×g) for 10 min. The supernatant was discarded, lysis buffer was added, and samples were incubated at room temperature. Lysates were transferred to reaction wells and incubated with anti-histone biotin and anti-DNA peroxidase antibodies and incubated at room temperature for 2 h. After three washes, the peroxidase substrate was added to each well, and the plates were read at 405 nm after 15-min incubation. The enrichment of histone-DNAfragments treated cells is expressed as absorbance at 405 nm.

[3] = tested on: ET-1-induced [Ca++] flux in rat aortic smooth muscle cells A7r5; settings: reference (23), cited from earlier work
[4] = target: T1, ET receptor, rat aortic smooth muscle cells (Rattus norvegicus, UniProt P26684); settings: reference (23), cited from earlier work
T1 construct: endogenous in cells; host or cells: rat aortic smooth muscle cells
T1 sequence (P26684 21-426): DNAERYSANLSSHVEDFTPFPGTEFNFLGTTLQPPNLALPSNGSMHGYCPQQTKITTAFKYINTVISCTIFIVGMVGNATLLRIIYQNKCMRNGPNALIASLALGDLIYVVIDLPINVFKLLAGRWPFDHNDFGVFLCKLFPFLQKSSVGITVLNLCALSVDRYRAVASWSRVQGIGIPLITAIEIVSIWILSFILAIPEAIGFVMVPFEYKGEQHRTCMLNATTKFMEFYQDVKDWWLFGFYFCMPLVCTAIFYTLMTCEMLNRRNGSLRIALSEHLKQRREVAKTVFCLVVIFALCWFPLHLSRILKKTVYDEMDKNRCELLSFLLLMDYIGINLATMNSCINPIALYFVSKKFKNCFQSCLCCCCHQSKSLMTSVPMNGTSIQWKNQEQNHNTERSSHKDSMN

Substance: Myriceric acid A
- estimated IC50, growth inhibition of A7r5 [1]: 0.87±0.30 […]μg/ml
- apoptosis, enrichment of histone-DNA fragments (absorbance at 405 nm) [2]: dose-dependent apoptosis
- IC50 ([3]; repeated as I50 for block of ET signaling pathway, read-out: IC50, inhibition of ET-1-induced [Ca++] flux): 11 nM
- IC50, inhibition of ET-1-induced [Ca++] flux [3]: 0.0075 µg/mL
- Ki, binding of radiolabeled ET to rat aortic smooth muscle cells [4]: 0.04 µg/mL
- Ki ([4]; read-out: Ki, binding of radiolabeled ET to rat aortic smooth muscle cells): 66 nM
